Measured values reported in US7648711B2, “Dimethicone-containing sustained release injection formulation” (priority 2003, dated 2010).
Like-named read-outs stand apart in the source and are kept apart here.

Assay: Solubility of therapeutic drugs in dimethicone
Format: physicochemical
Description: Thus, from the view point of bio-compatibility, dimethicone is suitable to be used as medium to prepare formulation for subcutaneous injection. […] Therefore, this will not pose any stability problem when using silicone as medium to prepare suspensions comprising the aforesaid drugs, which is one of the important factors usually affecting the sustained action of a long-lasting formulation. […] When hydrogenated castor oil used within the proper range (0.2% to 0.5%), the resulting liquid suspension is better in terms of stability, fluidibility, injectability and long-lasting releasing effect than the injection formulation prepared using water, vegetable oil or other organic liquid as the suspension medium. Hydrogenated castor oil functions as a suspending agent and enhances the effect of sustained releasing. In addition, when the formulation of the present invention is prepared by the micro powder crystallizing method, the presence of hydrogenated castor oil suppresses the growth of the crystal nucleus of active ingredients, whereby producing micro powder of active ingredients with a particle size of 20 micrometers or smaller. (4) By mixing the active ingredients with hydrogenated castor oil or with the-combination of hydrogenated castor oil and ethylcellulose to produce solid dispersion micro powder with particle size smaller than 300 micrometers, then dispersing the micro powder in silicone oil and grinding with a colloid mill or a ball mill, a long lasting release formulation containing solid dispersion of various particle sizes (from 10 micrometer to 150 micrometers) can be produced. Further, the sustained releasing effect of the formulation may be modified by adjusting the particle size of the solid dispersion and the proportion of hydrogenated castor oil relative to the active ingredients. For instance, sustained release formulations with various durations of effectiveness may be prepared as follows: mixing avermectins with hydrogenated castor oil to produce two solid dispersions with the avermectins to hydrogenated castor oil equal to 1:2 and 2:1, respectively, then mixing the two solid dispersions at a given ratio and dispersing the mixture in silicone oil, and producing the solid dispersion in the system with the particle size varying between 85 micrometers to 120 micrometers by controlling the extent of grinding. The formulation can provide an effective sustained releasing period up to 140 days following a single administration. Furthermore, the injection prepared by the above method has better injectability, stability and biocompatibility than water or vegetable oil based sustained release formulations for solid dispersion micro powder of avermectins/hydrogenated castor oil. Specifically, the formulation using water as medium has three disadvantages. First, it has difficulty to maintain an effective sustained releasing for more than 80 days. Second, it has poor injectability and, without adding more water soluble suspension assisting agents, solid suspension phase may “separate” from the water phase, causing injection failure due to blocking of the syringe needle. Third, it results in tissue lumps around the injection site. Other organic liquid based long-lasting formulations have similar problems.

O=[N+]([O-])NC1=NCCN1Cc1ccc(Cl)nc1 [imidacloprid]
Solubility in dimethicone: less than 0.01%

CC1(C)S[C@@H]2[C@H](NC(=O)Cc3ccccc3)C(=O)N2[C@H]1C(=O)[O-].[Na+] [penicillin G sodium salt]
Solubility in dimethicone: less than 0.01%

O=C(NC(=O)c1c(F)cccc1F)Nc1ccc(Cl)cc1 [diflubenzuron]
Solubility in dimethicone (dimethicone): less than 0.01%

CC1(C)S[C@@H]2[C@H](NC(=O)Cc3ccccc3)C(=O)N2[C@H]1C(=O)[O-].[K+] [penicillin G potassium salt]
Solubility in dimethicone: less than 0.01%

CO/N=C(\C(=O)N[C@@H]1C(=O)N2C(C(=O)O)=C(CSC(=O)c3ccco3)CS[C@H]12)c1csc(N)n1 [ceftiofur]
Solubility in dimethicone: less than 0.01%
